Experimental data from US10759781B2, “Substituted guanidine derivatives” (UBE INDUSTRIES, LTD., priority 2015, dated 2020).

Columns and labels:
in vivo = assay: in vivo; design: species or system SD rats; details: SD, rat, po, 3 mg/kg
Protocol: Rat Pharmacokinetic (PK) Study (Concentration of Compound in Plasma after Oral Administration)
Seven to eight week old SD rats (weighing 180 to 250 g) were orally administered with a suspension of the compound in 0.5 W/V % methylcellulose 400 solution. Under anesthesia, the blood was collected from the jugular vein in EDTA tubes at 0.25, 0.5, 1, 2, 4, 6, 8 and 24 hours after the administration of the compound. The blood was centrifuged at 4° C. and 6000 g for 3 minutes to give plasma. Acetonitrile was added to the plasma, and the mixture was stirred with a shaker at 750 rpm for 3 minutes and was deproteinized by centrifugation at 3700 rpm for 2 minutes. Thus, the obtained sample was analyzed by LC/MS under the following conditions.
The concentration of the compound in the plasma at each blood sampling time was determined by an internal standard method, and AUC all (Area Under Curve) was calculated by a trapezoidal method.
The following LC and MS systems were used for measurement.
LC: CBM 30 series manufactured by Shimadzu Corporation
Column: Phenomenex Kinetex C18 (50×2.1 mm, 2.6 μm)
Column temperature: 40° C.
Mobile phase A: 0.1% aqueous formic acid solution, mobile phase B: 0.1% formic acid,
50% acetonitrile/methanol mixture
MS: 3200 manufactured by SCIEX

[1] = tested on: Human normal glomerular microvascular endothelial cells; assay type: cell-based; details: 2 days, 100 nM
Protocol: The Cytotoxicity Inhibition Test in Human Normal Glomerular Microvascular Endothelial Cells
(§1) Human normal glomerular microvascular endothelial cells were plated at 6000 cells/well in a collagen-coated 96-well culture plate. After one day of culture, the medium at each well was completely removed by aspiration and replaced with 50 μL of the compound solution diluted with the basal medium. The basal medium containing 0.1% DMSO was added to control wells. Following, the plate was incubated in CO2 incubator for 30 minutes. Fifty microliter of 2 mM methylamine diluted with the basal medium was added (final concentration 1 mM) to each negative control well (0% inhibition) as well as the compound-containing well, and 50 μL of the basal medium was added to each positive control well (100% inhibition). The plate was incubated in CO2 incubator for 2 days. Ten microliter of CCK-8 was added to each well and the mixtures were incubated in a plate incubator at 37° C. for approximately 2 hours after stirring with a plate shaker. The absorbance of the mixtures at 450 nm was measured with a multiplate reader. The cytotoxicity inhibition ratio of the compound was calculated from the following equation. Inhibition ratio={[Average absorbance of the compound-containing wells]−[Average absorbance of negative control wells]}/{[Average absorbance of positive control wells]−[Average absorbance of negative control wells]}×100

Human VAP-1 enzyme = molecular target: T1, Human VAP-1 enzyme (Homo sapiens, UniProt Q16853); assay: Human VAP-1 enzyme inhibition test; assay type: biochemical; details: 1 h; compound 30 nM; 14C-benzylamine 100 μM; read-out: inhibition ratio (human VAP-1 enzyme)
T1 construct: purchased R&D Systems, Inc
T1 sequence (Q16853 1-763): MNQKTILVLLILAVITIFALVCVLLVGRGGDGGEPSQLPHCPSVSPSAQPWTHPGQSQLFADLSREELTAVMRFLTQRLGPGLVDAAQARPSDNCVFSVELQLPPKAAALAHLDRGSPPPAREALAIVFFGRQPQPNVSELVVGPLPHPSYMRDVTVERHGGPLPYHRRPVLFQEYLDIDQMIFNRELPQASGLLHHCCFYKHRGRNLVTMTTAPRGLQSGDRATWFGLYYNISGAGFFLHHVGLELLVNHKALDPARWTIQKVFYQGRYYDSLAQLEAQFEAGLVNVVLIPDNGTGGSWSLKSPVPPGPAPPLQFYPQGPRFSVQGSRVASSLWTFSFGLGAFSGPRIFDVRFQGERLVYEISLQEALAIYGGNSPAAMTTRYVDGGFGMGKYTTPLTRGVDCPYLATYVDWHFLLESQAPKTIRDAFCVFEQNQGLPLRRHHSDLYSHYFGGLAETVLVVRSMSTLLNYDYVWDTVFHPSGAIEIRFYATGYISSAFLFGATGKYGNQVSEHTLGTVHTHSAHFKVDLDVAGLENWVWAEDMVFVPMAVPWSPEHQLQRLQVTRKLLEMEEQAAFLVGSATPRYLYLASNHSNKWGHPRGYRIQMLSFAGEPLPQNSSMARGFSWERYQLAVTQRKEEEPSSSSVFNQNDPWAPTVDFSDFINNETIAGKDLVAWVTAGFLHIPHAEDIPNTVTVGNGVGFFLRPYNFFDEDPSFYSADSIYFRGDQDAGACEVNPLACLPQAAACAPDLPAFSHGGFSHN
Outline: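 Activity measured as radioactive oxidation product of 14C-benzylamine (100 μM final), extracted with toluene/ethyl acetate after citric acid stop and scintillation-counted. Enzyme (recombinant human VAP-1) first exposed to compound 20 min at room temperature, reaction then 1 h at 37 °C. Percent inhibition versus DMSO control.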

[2] = tested on: Human normal hepatic sinusoid-like microvascular endothelial cells; assay type: cell-based; details: 2 days, 300 nM
Protocol: The Cytotoxicity Inhibition Test in Human Normal Hepatic Sinusoid-Like Microvascular Endothelial Cells
as §1, with “hepatic sinusoid-like” for “glomerular”

Structure (SMILES) | AUC (in vivo) [ng·h/mL] | cytotoxicity inhibition ratio [1] [%] | inhibition at 0.03 µM (Human VAP-1 enzyme) [%] | cytotoxicity inhibition ratio [2] [%]
CON=C1CN(c2ncc(-c3cccc(COC(=O)NC(=N)N)c3F)cc2F)C1 [Example 36, 2-fluoro-3-{5-fluoro-6-[3-(methoxyimino)azetidin-1-yl]pyridin-3-yl}benzyl carbamimidoylcarbamate] | ≥ 1000 | ≥ 50 | ≥ 50 | ≥ 50
[2H]C([2H])([2H])ON=C1CN(c2ncc(-c3cccc(COC(=O)NC(=N)N)c3F)cc2F)C1 [Example 37, 2-fluoro-3-(5-fluoro-6-{3-[(methoxy-d3)imino]azetidin-1-yl}pyridin-3-yl)benzyl carbamimidoylcarbamate] | ≥ 1000 | ≥ 50 | ≥ 50 | ≥ 50
N=C(N)NC(=O)OCc1cccc(-c2cnc(N3CC(=NOCCC(O)CO)C3)c(F)c2)c1F (centres unmarked) [Example 95, 3-(6-{3-[(3,4-Dihydroxybutoxy)imino]azetidin-1-yl}-5-fluoropyridin-3-yl)-2-fluorobenzyl carbamimidoylcarbamate] | ≥ 1000 | ≥ 50 | ≥ 50 | ≥ 50
N=C(N)NC(=O)OCc1cccc(-c2cnc(N3CC(=NOCC(CO)CO)C3)c(F)c2)c1F [Example 96, 2-Fluoro-3-{5-fluoro-6-[3-{[3-hydroxy-2-(hydroxymethyl)propoxy]imino}azetidin-1-yl]pyridin-3-yl}benzyl carbamimidoylcarbamate] | ≥ 1000 | ≥ 50 | ≥ 50 | ≥ 50
N=C(N)NC(=O)OCc1cccc(-c2cnc(N3CC(=NOCC(F)CO)C3)nc2)c1F (centres unmarked) [Example 102, 2-Fluoro-3-(2-{3-[(2-fluoro-3-hydroxypropoxy)imino]azetidin-1-yl}pyrimidin-5-yl)benzyl carbamimidoylcarbamate] | ≥ 1000 | ≥ 50 | ≥ 50 | ≥ 50
